Experiments:
Type in all cases: cell-based, human
[1] = test system: L1 ORF1 and ORF2 mRNA in VCaP cells; assay: qPCR of L1 ORF1 and ORF2 mRNA; settings: for increase in ORF1 and ORF2 expression: 5-day treatment, carboplatin 5 μM or ENZ 10 μM, FIG. 3B
Protocol: (§1) Carboplatin or enzalutamide dissolved in DMSO and culture medium without FBS was added after a 24-hour initial incubation period. To control cells DMSO diluted in culture medium was added to a final concentration of 0.02%. LNCaP prostate cancer cells were transfected with L1 plasmid or positive and negative control plasmids and treated with carboplatin (5 μM) or ENZ (10 μM) the day after transfection, and cells were monitored for five days.
(§2) The isolation of RNA from cell lines was conducted using TriPure Isolation Reagent (Roche) following the manufacturer's protocol. The concentration of the RNA samples was measured using NanoDrop™ One/OneC Microvolume UV-Vis Spectrophotometer, followed by dilution of the samples to 1 μg/μl. The conversion of 1 μg of RNA to cDNA was done using Transcriptor First Strand cDNA Synthesis Kit (Roche) according to the manufacturer's instructions. The RT-PCR run was performed using LightCycler™ 480 SYBR Green I Master (Roche) and The LightCycler® 480 Real-Time PCR System (Roche) with 96-multiwell format. To allow separate analysis of ORF1 and ORF2, two sets of primer pairs were designed to target the L1RP-ORF1 (ORF1 mRNA thereafter), L1RP-ORF2 (ORF2 mRNA thereafter) and FANCI (Table 2). Each run included two biological and two technical replicates per treatment with fold change calculated based on the obtained Ct-values. Normalization was done against GAPDH values measured (Table 2).

[2] = test system: L1 activity in LNCaP prostate cancer cells; assay: L1-EGFP retrotransposition reporter assay; settings: carboplatin 5 μM or ENZ 10 μM, 5 days, FIG. 3A
Protocol: FIG. 3. […] (A) The effects of carboplatin (5 μM) or enzalutamide (ENZ, 10 μM) on L1 activity in LNCaP prostate cancer cells analyzed using a retrotransposition L1-EGFP reporter assay and IncuCyte S3 imaging equipped with a green fluorescence channel. Representative IncuCyte cell images are shown for untreated, ENZ, and carboplatin exposed LNCaP cells with green channel only (L1-EGFP) and phase contrast. The control plasmids used included two negative controls (L1Neg-EGFP and L1Mut-EGFP) and a positive control plasmid (L1Pos-EGFP). […] See also FIG. 8. (B) The effects of carboplatin or ENZ on ORF1 and ORF2 mRNA expression in LNCaP, VCaP, PC-3, and 22Rv1 prostate cancer cells. (C) L1 ORF1 and ORF2 mRNA levels from pre- and post-castration xenograft samples from LuCaP 77 and LuCaP 105 (23). […]
FIG. 8. […] (A) The effects of carboplatin (5 μM) or enzalutamide (ENZ, 10 μM) on L1 activity in LNCaP prostate cancer cells analyzed using a retrotransposition L1-EGFP reporter assay and IncuCyte S3 imaging system equipped with a green fluorescence channel. […]
as §1, with “To control cells DMSO diluted in culture medium was added to a final concentration of 0.02%.” left out, “days. […]” for “days.”

[3] = test system: L1 ORF1 and ORF2 mRNA in LNCaP cells; assay: qPCR of L1 ORF1 and ORF2 mRNA; settings: for ORF1 and ORF2 mRNA expression compared to control treated cells: 5 days, alone or in combination, AZT 50 μM
Protocol: Carboplatin or enzalutamide dissolved in DMSO and culture medium without FBS was added after a 24-hour initial incubation period. To control cells DMSO diluted in culture medium was added to a final concentration of 0.02%. […]
as §2

L1 ORF1p in LNCaP cells = assay: Western blot of L1 ORF1 protein; settings: carboplatin alone, or carboplatin with further addition of AZT, FIG. 9D
Protocol: FIG. 9. Further validation of L1 activation and suppression. (A) L1 mRNA levels from pre- and post-castration samples from LuCaP 77 and LuCaP 105 (16). […] Asterisks indicate significant differences between treatment conditions based on t-test (*, p<0.05; **, p<0.01; ***, p<0.001).
Whole cell lysates were prepared using SDS sample buffer (66 mM Tris-HCl pH 6.8, 13% Glyserol, 2.1% SDS and 0.01% Bromophenol Blue) with protease inhibitor added (cOmplete™ Protease Inhibitor Cocktail, Roche).

LNCaP cells = assay: Cell proliferation assay (siRNA knockdown, cell confluence); settings: 10 μM carboplatin
Protocol: For cell proliferation assays, cells were reverse transfected with 25 nM siRNAs against FANCI (Dharmacon, ON-TARGETplus SMARTpool, L-022320-01-0005) or Scr control (Dharmacon, non-targeting pool), using OPTI-MEM and Lipofectamine 2000 transfection reagent (Invitrogen) in four biological replicates in a 384-well plate. LNCaP cells were plated on the wells (1000 cells/well) in antibiotic free regular growth medium. After 48 h, vehicle control (DMSO) or Carboplatin dilutions were added into wells in appropriate concentrations diluted in FBS free medium and the cell confluence was monitored for five days using live-cell imaging (IncuCyte S3, Sartorius). Cell confluence was determined by automatic counting using IncuCyte S3 Image analysis tools. Cell confluence (confluence mask) on each time point was calculated based on phase-contrast imaging with a minimum area filter of 150 μm2, segmentation adjustment of 1.0, 100 μm2 cleanup and size adjust of −2 pixels. Confluence curves were compared for statistical differences between treatment conditions at each timepoint using t-test.

Row | Structure (SMILES) | increase in ORF1 and ORF2 expression [1] | L1 retrotransposition (L1-EGFP reporter, green fluorescence) [2] | ORF1 and ORF2 mRNA induction ([3]; 25-day incubation, ENZ alone or with AZT, FIG. 3D) | ORF1 and ORF2 mRNA expression compared to control treated cells ([3]; FIG. 3D) | ORF1 and ORF2 mRNA expression compared to control treated cells ([1]; 5 days, alone or in combination, AZT 50 μM, FIG. 3D) | increase in ORF1 and ORF2 expression ([3]; 5-day treatment, carboplatin 5 μM, FIG. 3B) | level of L1 ORF1p (Western blot) (L1 ORF1p in LNCaP cells) | proliferation of siFANCI LNCaP cells on carboplatin exposure (LNCaP cells)
1 | CNC(=O)c1ccc(N2C(=S)N(c3ccc(C#N)c(C(F)(F)F)c3)C(=O)C2(C)C)cc1F [ENZ, enzalutamide] | 5.5 fold | relative increase in L1-EGFP reporter, below statistical significance | 8 fold | no significant changes |  |  |  | 
2 | N.N.O=C([O-])C1(C(=O)[O-])CCC1.[Pt+2] [carboplatin] | 7 fold | L1 retrotransposition indicated by green fluorescence appeared |  | approximately 4 fold | ~9 fold | approximately 4 fold | significantly increased | significantly decreased proliferation

Source: US12123060B2, “Method for identifying targets for precision cancer therapy” (Tampere University Foundation sr, priority 2021, dated 2024)
